From patent US11168067B2, “Substituted quinazoline compound having blood-brain barrier penetration capability” (WEISHANG (SHANGHAI) BIO-PHARMACEUTICAL CO., LTD., priority 2016, dated 2021) come the findings set out here.

The test system of data set [1] is PC-9 tumor cell. Briefly: CellTiter-Glo (CTG) cell viability assay, PC-9 tumor cell growth inhibition. To be noted: for IC50: Homo sapiens, PC-9, 72 h, read-out: PC-9 tumor cell growth inhibition IC50. On the technique in general: In ATP-based viability assays light output follows the ATP content of the culture.
Protocol: Cell viability of tumor cells with EGFR-activated mutations (exon 19-deficient Exon 19 Del) protein was detected using CellTiter-Glo (CTG) assay; about 5000 cells were seeded in each blank 96-well plate, 16 hours later, add the proportionally diluted compound, equilibrated at room temperature for 72 hours after the addition of the drug for 30 minutes. 100 μl of CellTiter-Glo reagent was added to each well and the orbital shaker was mixed for 2 minutes to induce cell lysis. The plate was incubated at room temperature for 10 minutes to stabilize the luminescence signal. The TECAN Infinite M1000 Pro instrument records the luminescence signal.
A short description of data set [2]: Blood-brain barrier penetration (brain tissue to plasma concentration ratio). To be noted: rat, rats, four hours after dosing. Format: in vivo. Here is the method: To determine whether the compound was able to cross the blood-brain barrier (BBB), the rats were administered with the test compound. Four hours after dosing, rats were sacrificed, blood and brain tissue were collected and the concentration of the test compound was analyzed. Brain permeation is defined as the ratio of the concentration of the compound in the brain tissue to the concentration in the plasma. P-glycoprotein is the blood-brain barrier efflux protein, […].

The test system of data set [3] is PC-9-luc tumor cells. Briefly: Efficacy study on intracranial animal model (PC-9-luc). As to conditions: Iressa human equivalent dose, 8 mice per group. The format is in vivo. From the text: The injection was slowly preceded over a one-minute period. Upon completing injection, the needle was retained for another minute. After the needle removal, the hole was sealed with bone wax and the incision was closed. The tumor growth was monitored by image analysis. On Day 10, mice were randomized into 5 groups (8 mice per group) and start the treatments for three weeks.
The tumor growth was monitored by bioiluminense intensity. […] The survival benefits (no death or bodyweight loss less than 18%) treatment with compound X disclosed in table 3.

Data set [4] addresses P-glycoprotein (Homo sapiens, UniProt P08183). Nature of the data set: P-glycoprotein efflux substrate. The format is in vitro ADME.

Sequence of P-glycoprotein (P08183 whole entry): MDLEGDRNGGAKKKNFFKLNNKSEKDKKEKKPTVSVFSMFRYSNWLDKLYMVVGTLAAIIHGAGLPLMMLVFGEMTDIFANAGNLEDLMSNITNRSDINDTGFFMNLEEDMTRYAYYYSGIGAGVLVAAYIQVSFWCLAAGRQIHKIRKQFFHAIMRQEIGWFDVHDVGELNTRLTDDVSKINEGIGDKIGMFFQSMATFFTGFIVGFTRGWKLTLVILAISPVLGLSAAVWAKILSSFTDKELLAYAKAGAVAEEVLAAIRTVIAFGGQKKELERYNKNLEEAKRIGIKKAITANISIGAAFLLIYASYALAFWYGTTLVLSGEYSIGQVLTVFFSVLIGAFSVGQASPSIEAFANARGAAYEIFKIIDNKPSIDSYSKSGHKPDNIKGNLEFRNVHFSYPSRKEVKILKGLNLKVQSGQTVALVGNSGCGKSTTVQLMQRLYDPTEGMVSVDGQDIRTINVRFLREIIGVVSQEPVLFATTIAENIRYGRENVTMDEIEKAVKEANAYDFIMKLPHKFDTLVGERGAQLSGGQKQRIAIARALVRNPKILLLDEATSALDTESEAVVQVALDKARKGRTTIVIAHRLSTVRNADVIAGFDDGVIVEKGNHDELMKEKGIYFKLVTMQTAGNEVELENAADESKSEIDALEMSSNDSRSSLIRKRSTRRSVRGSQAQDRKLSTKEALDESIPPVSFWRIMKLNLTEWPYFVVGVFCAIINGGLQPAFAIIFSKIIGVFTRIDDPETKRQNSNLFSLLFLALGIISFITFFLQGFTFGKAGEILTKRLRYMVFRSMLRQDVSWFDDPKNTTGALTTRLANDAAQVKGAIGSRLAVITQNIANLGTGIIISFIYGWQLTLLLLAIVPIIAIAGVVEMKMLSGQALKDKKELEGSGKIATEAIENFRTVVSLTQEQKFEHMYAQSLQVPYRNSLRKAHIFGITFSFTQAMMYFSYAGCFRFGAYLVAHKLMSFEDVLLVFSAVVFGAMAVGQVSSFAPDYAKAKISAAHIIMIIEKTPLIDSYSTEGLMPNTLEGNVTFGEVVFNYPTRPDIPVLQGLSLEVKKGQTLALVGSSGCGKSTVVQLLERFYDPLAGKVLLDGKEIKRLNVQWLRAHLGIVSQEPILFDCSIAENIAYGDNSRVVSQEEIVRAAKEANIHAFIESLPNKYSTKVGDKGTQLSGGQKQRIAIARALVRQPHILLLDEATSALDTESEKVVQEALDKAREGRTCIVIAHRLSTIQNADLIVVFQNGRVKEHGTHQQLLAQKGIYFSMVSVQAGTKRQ

`[2H]C([2H])([2H])Oc1cc2ncnc(Nc3ccc(F)c(Cl)c3F)c2cc1OC1CCN(C2COC2)CC1(F)F` (racemic) [Compound 9, (R/S)—N-(3-chloro-2,4-difluorophenyl)-6-((3,3-difluoro-1-(oxetan-3-yl)piperidin-4-yl)oxy)-7-(methoxy-d3)quinazolin-4-amine]: the half-inhibitory concentration (IC50) (commonly the concentration that inhibits the measured activity by half) in data set [1] was under 1 nM. In addition, the “inhibiting PC-9 tumor cell growth compared with Iressa” value in data set [1] (PC-9 cells, cell viability assay) is given as “more effective than Iressa”. For the same molecule, the concentration ratio (Kp) – broadly, tissue or fluid exposure divided by exposure in the circulation – at 4 h in data set [2] was over 0.3.

As to `COc1cc2ncnc(Nc3cccc(Cl)c3F)c2cc1O[C@@H]1CCN(C2COC2)CC1(F)F` [Compound 11, (R)—N-(3-chloro-2-fluorophenyl)-6-((3,3-difluoro-1-(oxetan-3-yl)piperidin-4-yl)oxy)-7-methoxyquinazolin-4-amine], in data set [1], the IC50 is under 1 nM. Moreover, in data set [2], the Kp at 4 h is over 0.3.

With `COc1cc2ncnc(Nc3cccc(Cl)c3F)c2cc1O[C@H]1CCN(C2COC2)CC1(F)F` [Compound 13, (S)—N-(3-chloro-2-fluorophenyl)-6-((3,3-difluoro-1-(oxetan-3-yl)piperidin-4-yl)oxy)-7-methoxyquinazolin-4-amine], in data set [1], the IC50 was under 1 nM. Moreover, the concentration ratio (Kp) at 4 h in data set [2] was over 0.3.

In the case of `[2H]C([2H])([2H])Oc1cc2ncnc(Nc3cccc(Cl)c3F)c2cc1O[C@@H]1CCN(C2COC2)CC1(F)F` [Compound 15, (R)—N-(3-chloro-2-fluorophenyl)-6-((3,3-difluoro-1-(oxetan-3-yl)piperidin-4-yl)oxy)-7-(methoxy-d3)quinazolin-4-amine], the IC50 in data set [1] is under 1 nM. The Kp at 4 h in data set [2] was over 0.3.

As to `[2H]C([2H])([2H])Oc1cc2ncnc(Nc3cccc(Cl)c3F)c2cc1O[C@H]1CCN(C2COC2)CC1(F)F` [Compound 17, (S)—N-(3-chloro-2-fluorophenyl)-6-((3,3-difluoro-1-(oxetan-3-yl)piperidin-4-yl)oxy)-7-(methoxy-d3)quinazolin-4-amine], in data set [1], the 50% inhibitory concentration (IC50) was under 1 nM. Moreover, in data set [2], the Kp at 4 h is over 0.3.

As for `COc1cc2ncnc(Nc3ccc(F)c(Cl)c3F)c2cc1O[C@@H]1CCN(C2COC2)CC1(F)F` [Compound 23, (R)—N-(3-chloro-2,4-difluorophenyl)-6-((3,3-difluoro-1-(oxetan-3-yl)piperidin-4-yl)oxy)-7-methoxyquinazolin-4-amine], in data set [1], the IC50 was under 1 nM. The partition ratio (Kp) at 4 h in data set [2] was over 0.3.

Turning to `COc1cc2ncnc(Nc3ccc(F)c(Cl)c3F)c2cc1O[C@H]1CCN(C2COC2)CC1(F)F` [Compound 25, (S)—N-(3-chloro-2,4-difluorophenyl)-6-((3,3-difluoro-1-(oxetan-3-yl)piperidin-4-yl)oxy)-7-methoxyquinazolin-4-amine], in data set [1], the IC50 is under 1 nM. Further, the concentration ratio (Kp) at 4 h in data set [2] was over 0.3.

Turning to `[2H]C([2H])([2H])Oc1cc2ncnc(Nc3ccc(F)c(Cl)c3F)c2cc1O[C@@H]1CCN(C2COC2)CC1(F)F` [Compound 27, (R)—N-(3-chloro-2,4-difluorophenyl)-6-((3,3-difluoro-1-(oxetan-3-yl)piperidin-4-yl)oxy)-7-(methoxy-d3)quinazolin-4-amine], the IC50 in data set [1] is under 1 nM. Also, the Kp at 4 h in data set [2] is over 0.3.

`[2H]C([2H])([2H])Oc1cc2ncnc(Nc3ccc(F)c(Cl)c3F)c2cc1O[C@H]1CCN(C2COC2)CC1(F)F` [Compound 29, (S)—N-(3-chloro-2,4-difluorophenyl)-6-((3,3-difluoro-1-(oxetan-3-yl)piperidin-4-yl)oxy)-7-(methoxy-d3)quinazolin-4-amine]: in data set [1], the IC50 is under 1 nM. The Kp at 4 h in data set [2] is over 0.3.

Take `COc1cc2ncnc(Nc3ccc(F)c(Cl)c3)c2cc1OCCCN1CCOCC1` [Iressa, gefitinib]: the Kp at 4 h in data set [2] was under 0.05. Also, the “survival (no death or bodyweight loss less than 18%), mice at D 20” value in data set [3] (D 20 post tumor implantation) was found to be 8. The “survival, mice at D 24” value in data set [3] (D 24 post tumor implantation) is reported as 7. For the same molecule, the “survival, mice at D 27” value in data set [3] (D 27 post tumor implantation) is 7. Besides, the “survival, mice at D 28” value in data set [3] (D 28 post tumor implantation) is given as 7. In data set [3] (D 30 post tumor implantation), the “survival, mice at D 30” value amounted to 7. For the same molecule, in data set [3] (D 31 post tumor implantation), the “survival, mice at D 31” value was determined as 4. For the same molecule, the P-glycoprotein efflux substrate result in data set [4] is reported as “yes”.
